Here are results for two molecules from EP0055716B1, “AMPLIFIED ANTIBIOTIC AND ANTITUMOR AGENTS” (priority 1980, dated 1982).

One assay concerns Ehrlich's Ascites Tumor. The assay can be described thus: Survival of mice with Ehrlich's ascites tumor, amide with or without amplifier. Type of assay: in vivo. Conditions: for T/C (1): control saline vehicle only.
Assay [1] deals with Walker 256 carcinoma Sarcoma. The assay can be described thus: Survival of rats with Walker 256 ascites tumour, amide with or without amplifier. The format is in vivo, Sprague Dawley rats. As to conditions: for T/C (1): control saline vehicle only. The method, then: This was given two 2-minute treatments with Boyle's fluid (9 vols. 0.83% NH4CI, 1 vol. Tris buffer, pH7.2). The cell suspension was counted on a haemocytometer using Turk's fluid and then diluted with Eagle's medium to 10^7 live cells per ml, and then 0.1 ml was injected intraperitoneally. Bacto-fluid Thiolglycollate Medium was used to test for contamination. Solutions of the phleomycins, bleomycins or tallysomycins were made up in phosphate-buffered saline at pH7.2 in daily doses at the commencement of each 5 day injection period and were kept frozen until the commencement of each day's injections. The injections were given at 9 a.m. and 4 p.m. […] Test groups usually comprised 7 or 8 animals.

The next assay concerns Mouse Sarcoma 180. As to the kind of experiment: Survival of mice with Sarcoma 180, amide with or without amplifier. Conditions: i.p.; for T/C (1): control saline vehicle only. The format is in vivo.
Where [2] appears, read: Exp 2A, i.p., amplifier alone 10.61 uKD.
The mark [3] stands for this setting: Exp 2A, i.p., amplifier alone 106.1 uKD.
Where [4] appears, read: Exp 2B, amplifier alone 10.61 uKD in drinking water.
Where [5] appears, read: Exp 2B, amplifier alone 106.1 uKD in drinking water.
Setting [6] is: Exp 2B, amplifier alone 1061 uKD in drinking water.
Where [7] appears, read: Exp 1A, amplifier alone 10.61 uKD.
The mark [8] stands for this setting: Exp 1A, amplifier alone 106.1 uKD.
The mark [9] stands for this setting: Exp 1B, amplifier alone 10.61 uKD.
[10] abbreviates: Exp 1B, amplifier alone 1061 uKD.
[11] abbreviates: Exp 1D, amplifier alone 10.61 uKD in minipumps.
[12] abbreviates: Exp 1D, amplifier alone 106.1 uKD in minipumps.
Where [13] appears, read: Exp 3A, amplifier alone 1942 uKD.
Where [14] appears, read: Exp 2C, i.p., amplifier alone 675 uKD.
Setting [15] is: Exp 2C, i.p., amplifier alone 2025 uKD.
Where [16] appears, read: Exp 1C, amplifier alone 675 uKD.
[17] abbreviates: Exp 1E, amplifier alone 675 uKD.
The mark [18] stands for this setting: Exp 3B, amplifier alone 675 uKD.
[19] abbreviates: Exp 3C, amplifier alone 675 uKD.

As for `Cn1c(=O)c2c(ncn2C)n(C)c1=O` [Caffeine, 1, 3, 7 trimethyl xanthene], the M.S.T. in the assay with Ehrlich's Ascites Tumor (setting [2]) stood at 21.0 days; with Ehrlich's Ascites Tumor (setting [3]), 21.0 days; with Ehrlich's Ascites Tumor (setting [4]), 22.0 days; in the assay on Ehrlich's Ascites Tumor (setting [5]), 21.0 days; in the assay on Ehrlich's Ascites Tumor (setting [6]), 20.0 days; in assay [1] (setting [7]), 8.0 days. The M.S.T. in assay [1] (setting [8]) was 8.0 days; in assay [1] (setting [9]), 7.0 days; in assay [1] (setting [10]), 8.0 days; in assay [1] (setting [11]), 10.0 days; in assay [1] (setting [12]), 10.0 days; with Mouse Sarcoma 180 (setting [13]), 17.0 days. In addition, the “T/C (1)” value in the assay on Ehrlich's Ascites Tumor (setting [2]) is 93; in the assay with Ehrlich's Ascites Tumor (setting [3]), 93; in the assay with Ehrlich's Ascites Tumor (setting [4]), 119; with Ehrlich's Ascites Tumor (setting [5]), 113; with Ehrlich's Ascites Tumor (setting [6]), 108; in assay [1] (setting [7]) it was 89. The “T/C (1)” value was 89 in assay [1] (setting [8]); 93 in assay [1] (setting [9]); 107 in assay [1] (setting [10]); 95 in assay [1] (setting [11]); 95 in assay [1] (setting [12]); 106 with Mouse Sarcoma 180 (setting [13]).

As for Dimethylthiocyanine, the M.S.T. with Ehrlich's Ascites Tumor (setting [14]) was 20.0 days; with Ehrlich's Ascites Tumor (setting [15]), 20.0 days; in assay [1] (setting [16]), 9.0 days; in assay [1] (setting [17]), 6.0 days; in the assay on Mouse Sarcoma 180 (setting [18]) it was 17.0 days; in the assay with Mouse Sarcoma 180 (setting [19]) it was 17.0 days. Moreover, the “T/C (1)” value is on record as 111 in the assay with Ehrlich's Ascites Tumor (setting [14]); 111 in the assay with Ehrlich's Ascites Tumor (setting [15]); 112 in assay [1] (setting [16]); 100 in assay [1] (setting [17]); 100 in the assay with Mouse Sarcoma 180 (setting [18]); 100 in the assay on Mouse Sarcoma 180 (setting [19]).
